Experimental data reported in ChEMBL document CHEMBL3044945, “Synthesis of 1,3,5-trisubstituted pyrazoline nucleus containing compounds and screening for antimicrobial activity” (2012).
In brackets after ≈: the same amount, converted by molar mass.

Tests used:
Assay type in all cases: functional
[1] = system: Bacillus subtilis; experiment: Antibacterial activity against Bacillus subtilis MTCC 441 at 1250 ug/ml after 48 hr by cup-plate method; conditions: MTCC 441, 48 h, read-out: DIZ
[2] = system: Bacillus subtilis; experiment: Antibacterial activity against Bacillus subtilis MTCC 441 at 1000 ug/ml after 48 hr by cup-plate method; conditions: MTCC 441, 48 h, read-out: DIZ
[3] = system: Bacillus subtilis; experiment: Antibacterial activity against Bacillus subtilis MTCC 441 at 750 ug/ml after 48 hr by cup-plate method; conditions: MTCC 441, 48 h, read-out: DIZ
[4] = system: Bacillus subtilis; experiment: Antibacterial activity against Bacillus subtilis MTCC 441 at 100 ug/ml after 48 hr by cup-plate method; conditions: MTCC 441, 48 h, read-out: DIZ
[5] = system: Penicillium chrysogenum; experiment: Antifungal activity against Penicillium chrysogenum MTCC 161 after 24 to 48 hr by tube dilution method
[6] = system: Aspergillus niger; experiment: Antifungal activity against Aspergillus niger MTCC 2546 after 24 to 48 hr by tube dilution method
[7] = system: Pseudomonas fluorescens; experiment: Antibacterial activity against Pseudomonas fluorescens MTCC 2421 after 24 to 48 hr by tube dilution method
[8] = system: Bacillus pumilus; experiment: Antibacterial activity against Bacillus pumilus MTCC 1456 after 24 to 48 hr by tube dilution method
[9] = system: Pseudomonas aeruginosa; experiment: Antibacterial activity against Pseudomonas aeruginosa MTCC 424 after 24 to 48 hr by tube dilution method
[10] = system: Staphylococcus aureus; experiment: Antibacterial activity against Staphylococcus aureus MTCC 1430 after 24 to 48 hr by tube dilution method
[11] = system: Bacillus subtilis; experiment: Antibacterial activity against Bacillus subtilis MTCC 441 after 24 to 48 hr by tube dilution method
[12] = system: Penicillium chrysogenum; experiment: Antifungal activity against Penicillium chrysogenum MTCC 161 at 1250 ug/ml after 48 hr by cup-plate method; conditions: MTCC 161, 48 h, read-out: DIZ
[13] = system: Penicillium chrysogenum; experiment: Antifungal activity against Penicillium chrysogenum MTCC 161 at 1000 ug/ml after 48 hr by cup-plate method; conditions: MTCC 161, 48 h, read-out: DIZ
[14] = system: Penicillium chrysogenum; experiment: Antifungal activity against Penicillium chrysogenum MTCC 161 at 500 ug/ml after 48 hr by cup-plate method; conditions: MTCC 161, 48 h, read-out: DIZ
[15] = system: Penicillium chrysogenum; experiment: Antifungal activity against Penicillium chrysogenum MTCC 161 at 250 ug/ml after 48 hr by cup-plate method; conditions: MTCC 161, 48 h, read-out: DIZ
[16] = system: Penicillium chrysogenum; experiment: Antifungal activity against Penicillium chrysogenum MTCC 161 at 100 ug/ml after 48 hr by cup-plate method; conditions: MTCC 161, 48 h, read-out: DIZ
[17] = system: Aspergillus niger; experiment: Antifungal activity against Aspergillus niger MTCC 2546 at 1250 ug/ml after 48 hr by cup-plate method; conditions: MTCC 2546, 48 h, read-out: DIZ
[18] = system: Aspergillus niger; experiment: Antifungal activity against Aspergillus niger MTCC 2546 at 1000 ug/ml after 48 hr by cup-plate method; conditions: MTCC 2546, 48 h, read-out: DIZ
[19] = system: Aspergillus niger; experiment: Antifungal activity against Aspergillus niger MTCC 2546 at 100 ug/ml after 48 hr by cup-plate method; conditions: MTCC 2546, 48 h, read-out: DIZ
[20] = system: Pseudomonas fluorescens; experiment: Antibacterial activity against Pseudomonas fluorescens MTCC 2421 at 1250 ug/ml after 48 hr by cup-plate method; conditions: MTCC 2421, 48 h, read-out: DIZ
[21] = system: Pseudomonas fluorescens; experiment: Antibacterial activity against Pseudomonas fluorescens MTCC 2421 at 1000 ug/ml after 48 hr by cup-plate method; conditions: MTCC 2421, 48 h, read-out: DIZ
[22] = system: Pseudomonas fluorescens; experiment: Antibacterial activity against Pseudomonas fluorescens MTCC 2421 at 750 ug/ml after 48 hr by cup-plate method; conditions: MTCC 2421, 48 h, read-out: DIZ
[23] = system: Pseudomonas fluorescens; experiment: Antibacterial activity against Pseudomonas fluorescens MTCC 2421 at 500 ug/ml after 48 hr by cup-plate method; conditions: MTCC 2421, 48 h, read-out: DIZ
[24] = system: Pseudomonas fluorescens; experiment: Antibacterial activity against Pseudomonas fluorescens MTCC 2421 at 250 ug/ml after 48 hr by cup-plate method; conditions: MTCC 2421, 48 h, read-out: DIZ
[25] = system: Escherichia coli; experiment: Antibacterial activity against Escherichia coli MTCC 1573 at 1250 ug/ml after 48 hr by cup-plate method; conditions: MTCC 1573, 48 h, read-out: DIZ
[26] = system: Escherichia coli; experiment: Antibacterial activity against Escherichia coli MTCC 1573 at 1000 ug/ml after 48 hr by cup-plate method; conditions: MTCC 1573, 48 h, read-out: DIZ
[27] = system: Escherichia coli; experiment: Antibacterial activity against Escherichia coli MTCC 1573 at 750 ug/ml after 48 hr by cup-plate method; conditions: MTCC 1573, 48 h, read-out: DIZ
[28] = system: Micrococcus luteus; experiment: Antibacterial activity against Micrococcus luteus MTCC 1538 at 1000 ug/ml after 48 hr by cup-plate method; conditions: MTCC 1538, 48 h, read-out: DIZ
[29] = system: Micrococcus luteus; experiment: Antibacterial activity against Micrococcus luteus MTCC 1538 at 750 ug/ml after 48 hr by cup-plate method; conditions: MTCC 1538, 48 h, read-out: DIZ
[30] = system: Escherichia coli; experiment: Antibacterial activity against Escherichia coli MTCC 1573 at 500 ug/ml after 48 hr by cup-plate method; conditions: MTCC 1573, 48 h, read-out: DIZ
[31] = system: Escherichia coli; experiment: Antibacterial activity against Escherichia coli MTCC 1573 at 250 ug/ml after 48 hr by cup-plate method; conditions: MTCC 1573, 48 h, read-out: DIZ
[32] = system: Micrococcus luteus; experiment: Antibacterial activity against Micrococcus luteus MTCC 1538 at 1250 ug/ml after 48 hr by cup-plate method; conditions: MTCC 1538, 48 h, read-out: DIZ
[33] = system: Micrococcus luteus; experiment: Antibacterial activity against Micrococcus luteus MTCC 1538 at 500 ug/ml after 48 hr by cup-plate method; conditions: MTCC 1538, 48 h, read-out: DIZ
[34] = system: Micrococcus luteus; experiment: Antibacterial activity against Micrococcus luteus MTCC 1538 at 250 ug/ml after 48 hr by cup-plate method; conditions: MTCC 1538, 48 h, read-out: DIZ
[35] = system: Bacillus pumilus; experiment: Antibacterial activity against Bacillus pumilus MTCC 1456 at 750 ug/ml after 48 hr by cup-plate method; conditions: MTCC 1456, 48 h, read-out: DIZ
[36] = system: Bacillus pumilus; experiment: Antibacterial activity against Bacillus pumilus MTCC 1456 at 500 ug/ml after 48 hr by cup-plate method; conditions: MTCC 1456, 48 h, read-out: DIZ
[37] = system: Bacillus pumilus; experiment: Antibacterial activity against Bacillus pumilus MTCC 1456 at 250 ug/ml after 48 hr by cup-plate method; conditions: MTCC 1456, 48 h, read-out: DIZ
[38] = system: Bacillus pumilus; experiment: Antibacterial activity against Bacillus pumilus MTCC 1456 at 100 ug/ml after 48 hr by cup-plate method; conditions: MTCC 1456, 48 h, read-out: DIZ
[39] = system: Staphylococcus aureus; experiment: Antibacterial activity against Staphylococcus aureus MTCC 1430 at 1000 ug/ml after 48 hr by cup-plate method; conditions: MTCC 1430, 48 h, read-out: DIZ
[40] = system: Staphylococcus aureus; experiment: Antibacterial activity against Staphylococcus aureus MTCC 1430 at 500 ug/ml after 48 hr by cup-plate method; conditions: MTCC 1430, 48 h, read-out: DIZ
[41] = system: Pseudomonas aeruginosa; experiment: Antibacterial activity against Pseudomonas aeruginosa MTCC 424 at 1250 ug/ml after 48 hr by cup-plate method; conditions: MTCC 424, 48 h, read-out: DIZ
[42] = system: Pseudomonas aeruginosa; experiment: Antibacterial activity against Pseudomonas aeruginosa MTCC 424 at 1000 ug/ml after 48 hr by cup-plate method; conditions: MTCC 424, 48 h, read-out: DIZ
[43] = system: Pseudomonas aeruginosa; experiment: Antibacterial activity against Pseudomonas aeruginosa MTCC 424 at 750 ug/ml after 48 hr by cup-plate method; conditions: MTCC 424, 48 h, read-out: DIZ

O=[N+]([O-])c1ccc(C2CC(c3cccc4ccccc34)=NN2)cc1 (stereo not drawn)
zone of inhibition at 1250 µg/mL [1]: 19 mm
zone of inhibition at 1000 µg/mL [2]: 16 mm
zone of inhibition at 750 µg/mL [3]: 15 mm
zone of inhibition at 100 µg/mL [4]: 10 mm
MIC [5]: 50 mg/L (≈ 158 µM)
MIC [6]: 50 mg/L (≈ 158 µM)
MIC [7]: 150 mg/L (≈ 473 µM)
MIC [8]: 30 mg/L (≈ 94.5 µM)
MIC [9]: 30 mg/L (≈ 94.5 µM)
MIC [10]: 50 mg/L (≈ 158 µM)
MIC [11]: 30 mg/L (≈ 94.5 µM)
zone of inhibition at 1250 µg/mL [12]: 17 mm
zone of inhibition at 1000 µg/mL [13]: 15 mm
zone of inhibition at 500 µg/mL [14]: 10 mm
zone of inhibition at 250 µg/mL [15]: 9 mm
zone of inhibition at 100 µg/mL [16]: 8 mm
zone of inhibition at 1250 µg/mL [17]: 18 mm
zone of inhibition at 1000 µg/mL [18]: 16 mm
zone of inhibition at 100 µg/mL [19]: 8 mm
zone of inhibition at 1250 µg/mL [20]: 17 mm
zone of inhibition at 1000 µg/mL [21]: 15 mm
zone of inhibition at 750 µg/mL [22]: 14 mm
zone of inhibition at 500 µg/mL [23]: 11 mm
zone of inhibition at 250 µg/mL [24]: 9 mm
zone of inhibition at 1250 µg/mL [25]: 18 mm
zone of inhibition at 1000 µg/mL [26]: 15 mm
zone of inhibition at 750 µg/mL [27]: 13 mm
zone of inhibition at 1000 µg/mL [28]: 13 mm
zone of inhibition at 750 µg/mL [29]: 12 mm
zone of inhibition at 500 µg/mL [30]: 11 mm
zone of inhibition at 250 µg/mL [31]: 10 mm
zone of inhibition at 1250 µg/mL [32]: 15 mm
zone of inhibition at 500 µg/mL [33]: 11 mm
zone of inhibition at 250 µg/mL [34]: 10 mm
zone of inhibition at 750 µg/mL [35]: 14 mm
zone of inhibition at 500 µg/mL [36]: 10 mm
zone of inhibition at 250 µg/mL [37]: 9 mm
zone of inhibition at 100 µg/mL [38]: 8 mm
zone of inhibition at 1000 µg/mL [39]: 14 mm
zone of inhibition at 500 µg/mL [40]: 11 mm
zone of inhibition at 1250 µg/mL [41]: 15 mm
zone of inhibition at 1000 µg/mL [42]: 13 mm
zone of inhibition at 750 µg/mL [43]: 12 mm
